The results in this text go back to ChEMBL document CHEMBL1201862, “PubChem BioAssay data set” (2004).

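Protocol summary: plate cells (96-well), add compound at 5 concentrations, incubate 48 h, interpolate endpoints linearly. GI50 marks 50% less growth.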 Active and inactive are the calls of the source. Cut-off read from the data, not from the text of the source: active = GI50 up to about 1.1 µM and inactive = higher. A value given as a limit tells only on which side of the number the result lay.

Holding throughout (experiment): DTP human tumour cell line panel, 48 h
Assay [1] relates to SN12C.
For assay [2], the system named is SK-MEL-2.
Assay [3] deals with SW-620.
Assay [4] deals with U-251.
Assay [5] has as its system A549.
Assay [6] concerns HOP-62.
For assay [7], the system named is SF-295.
For assay [8], the system named is NCI-H226.
Assay [9] deals with NCI-H522.
Assay [10] relates to OVCAR-8.
Assay [11] deals with RPMI-8226.
Assay [12] deals with EKVX.
In assay [13] the test system is M14.
Assay [14] relates to SNB-75.
The test system of assay [15] is UACC-62.
Assay [16] has as its system LOX IMVI.
Assay [17] has as its system NCI-H460.
Assay [18] has as its system HCC 2998.
The test system of assay [19] is OVCAR-3.
The subject of assay [20] is Malme-3M.

On to `CC(=O)c1cccc(NC(=O)C(=O)C(C(=O)c2ccccc2F)C2OC(=O)c3ccccc32)c1` (configuration not stated), for which the GI50 in assay [1] was 27.1 µM (inactive); in assay [2], 29.8 µM (inactive); in assay [3], 99.5 µM (inactive); in [4], 19.8 µM (inactive); in assay [5] it was 54.8 µM (inactive); in assay [6] it was 61.7 µM (inactive). Moreover, the GI50 in assay [7] was 42.6 µM (inactive); in [8] it was 19.1 µM (inactive); in assay [9], 19.4 µM (inactive); in [10], 31.8 µM (inactive); in [11] it was 20.3 µM (inactive); in [12], 43.4 µM (inactive). For the same compound, the GI50 was 92.7 µM (inactive) in assay [13]; 25.8 µM (inactive) in assay [14]; 34.6 µM (inactive) in [15]; 19.5 µM (inactive) in assay [16]; 30.9 µM (inactive) in assay [17]; 24.1 µM (inactive) in assay [18].
Turning to `CN=S(=O)(C[C@]1(O)CC2OC1C1OC(C)(C)OC21)c1ccccc1` (some centres not stated), the GI50 in assay [1], in assay [2], in assay [3], in assay [4], in assay [5] and in [6] was > 100 µM (inactive) throughout. Also, the GI50 in assay [7], in assay [8], in assay [9], in assay [10], in assay [11] and in [12] was > 100 µM (inactive) throughout. Besides, the GI50 was > 100 µM (inactive) in assay [13]; 83 µM (inactive) in assay [14]; > 100 µM (inactive) in assay [15]; > 100 µM (inactive) in [19]; > 100 µM (inactive) in assay [17]; > 100 µM (inactive) in assay [18]. Also, in assay [20], the GI50 was > 100 µM (inactive).
With `CCOC(=O)c1c(-c2ccccc2)c(C(OC(c2ccccc2)c2c(-c3ccccc3)c(C(=O)OCC)n3ccccc23)c2ccccc2)c2ccccn12` (configuration not stated), the GI50 in assay [1], in assay [2], in assay [3], in [5], in [6] and in assay [7] was > 100 µM (inactive) each time. For the same compound, the GI50 in assay [8], in assay [9], in [10], in assay [11], in assay [12] and in assay [13] was > 100 µM (inactive) throughout. The GI50 in assay [14], in assay [15], in [16], in [19], in [17] and in assay [18] was > 100 µM (inactive) each time. In [20], the GI50 is > 100 µM (inactive).
For `COc1ccc(CCC2NCCc3cc(OC)c(OC)cc32)cc1` (configuration not stated), the GI50 in assay [1], in assay [2], in assay [3], in assay [4], in assay [5] and in assay [6] was > 100 µM (inactive) throughout. In addition, the GI50 in assay [7], in [9], in assay [10], in [11], in assay [12] and in [13] was > 100 µM (inactive) throughout. The GI50 in assay [14], in assay [19], in assay [17], in assay [18] and in assay [20] was > 100 µM (inactive) throughout.
Consider `CC1=C2c3c(C)ccc4ccc(C)c(c34)C2(O)C(C)C1=O` (configuration not stated), for which the GI50 in assay [1] was > 100 µM (inactive); in [2], > 100 µM (inactive); in assay [3], > 100 µM (inactive); in assay [4] it was > 100 µM (inactive); in assay [5] it was 40.3 µM (inactive); in assay [6], 79.1 µM (inactive). For the same compound, the GI50 in assay [8] was > 100 µM (inactive); in assay [9], 47.2 µM (inactive); in [10], 19.4 µM (inactive); in [11] it was 33 µM (inactive); in assay [12], 70.8 µM (inactive); in [13] it was 62.2 µM (inactive). Besides, the GI50 in assay [14] is 30.8 µM (inactive); in assay [15] it was 35.8 µM (inactive); in assay [16], 45.4 µM (inactive); in [19], 37.7 µM (inactive); in assay [17], 60.1 µM (inactive); in [18], > 100 µM (inactive).
Regarding `COC(=O)C(=O)C(C(=O)OC)C(=O)C(=O)Nc1cc(Cl)c(Cl)cc1Cl` (configuration not stated), the GI50 in assay [1], in assay [2], in assay [4], in assay [5], in assay [6] and in assay [7] was > 100 µM (inactive) each time. The GI50 in assay [8] is > 100 µM (inactive); in assay [9], > 100 µM (inactive); in assay [10], > 100 µM (inactive); in [11], 24.9 µM (inactive); in assay [12], > 100 µM (inactive); in assay [13], > 100 µM (inactive). Also, the GI50 in assay [14] is > 100 µM (inactive); in assay [15], > 100 µM (inactive); in assay [16], 61 µM (inactive); in [19] it was > 100 µM (inactive); in assay [17], > 100 µM (inactive); in [18], > 100 µM (inactive). Besides, the GI50 in [20] is > 100 µM (inactive).
Consider `S=C1/C(=N/c2ccccc2)N(c2ccccc2)/C(=N\c2ccccn2)N1c1ccccc1`, for which the GI50 in [1] was 8.41 µM (inactive); in assay [2] it was 11.9 µM (inactive); in assay [3], 14 µM (inactive); in [4], 15.8 µM (inactive); in assay [5], 17.8 µM (inactive); in assay [6] it was 16.3 µM (inactive). Besides, the GI50 in assay [7] was 16.3 µM (inactive); in [8], 18.2 µM (inactive); in [9], 1.63 µM (inactive); in assay [10], 14.5 µM (inactive); in [11], 6.78 µM (inactive); in assay [12] it was 13.5 µM (inactive). Besides, the GI50 in assay [14] is 14.7 µM (inactive); in assay [15], 2.77 µM (inactive); in assay [16], 6.61 µM (inactive); in assay [17] it was 13.6 µM (inactive); in assay [18], 14.1 µM (inactive); in [20], 16.9 µM (inactive).
For `O=[N+]([O-])/C=C/c1cn(CCCCCCCCn2cc(/C=C/[N+](=O)[O-])c3ccccc32)c2ccccc12`, the GI50 in [1], in [2], in assay [3], in assay [5], in [6] and in assay [7] was > 10 µM (inactive) in each case. In addition, the GI50 was > 10 µM (inactive) in assay [8]; > 10 µM (inactive) in assay [9]; > 10 µM (inactive) in assay [10]; 0.41 µM (active) in assay [11]; > 10 µM (inactive) in assay [12]; > 10 µM (inactive) in assay [13]. The GI50 in assay [14] was > 10 µM (inactive); in assay [15] it was > 10 µM (inactive); in assay [16], 3.51 µM (inactive); in assay [19], > 10 µM (inactive); in assay [17], > 10 µM (inactive); in assay [18], 7.59 µM (inactive). Also, in assay [20], the GI50 is > 10 µM (inactive).
On to `N#CN=C(N(Cc1ccccc1)Cc1ccccc1)N(Cc1ccccc1)Cc1ccccc1`, for which the GI50 in [1] was 23.4 µM (inactive); in assay [2], 12 µM (inactive); in [3] it was 9.82 µM (inactive); in assay [5], 6.44 µM (inactive); in [6], > 100 µM (inactive); in assay [7] it was > 100 µM (inactive). The GI50 was 32.5 µM (inactive) in [8]; 4.69 µM (inactive) in [9]; 6.7 µM (inactive) in assay [10]; 3.88 µM (inactive) in assay [11]; 7.11 µM (inactive) in [12]; 15.3 µM (inactive) in [13]. In addition, the GI50 was 95.7 µM (inactive) in assay [14]; 6.32 µM (inactive) in assay [15]; 20.4 µM (inactive) in assay [16]; 10.9 µM (inactive) in assay [19]; 3.88 µM (inactive) in assay [17]; 47 µM (inactive) in assay [18]. Further, the GI50 in assay [20] is 36.7 µM (inactive).
Turning to `CCOC(=O)C1S(=O)(=O)OCCOS1(=O)=O`, the GI50 in assay [1], in assay [2], in assay [3], in [5], in [6] and in assay [7] was > 100 µM (inactive) throughout. For the same compound, the GI50 in [9], in [10], in assay [11], in [12], in assay [13] and in [14] was > 100 µM (inactive) each time. The GI50 in [15], in [16], in assay [19], in assay [18] and in [20] was > 100 µM (inactive) throughout.
Take `CNNC(=NS(=O)(=O)c1cc(C#N)c(NNC)cc1S)NNC`: the GI50 in assay [1], in assay [2], in assay [3], in assay [4], in assay [5] and in assay [6] was > 10 µM (inactive) throughout. The GI50 in assay [7], in [8], in [9], in assay [10], in [11] and in assay [12] was > 10 µM (inactive) throughout. Further, the GI50 in [13], in assay [14], in assay [16], in assay [19], in assay [17] and in assay [18] was > 10 µM (inactive) each time. Besides, the GI50 in assay [20] was > 10 µM (inactive).
